# Source: patent publication US20100203104A1, “DELIVERY SYSTEM FOR RISPERIDONE” (N.V. Organon, priority 2006, published 2010)
# Experiment: Solubility of risperidone in ethylene vinyl acetate copolymer
# Format: physicochemical
# Settings: ethylene vinyl acetate copolymer having a vinyl acetate content of 28%
# Procedure: With risperidone is meant 3-[2-[4-(6-fluoro-1,2-benzisoxazol-3-yl)-1-piperidinyl]ethyl]-6,7,8,9-tetrahydro-2-methyl-4H-pyrido[1,2-a]pyrimidin-4-one. […] Solubility is measured as described in Laarhoven, J. A. H., et al. (2002), International Journal of Pharmaceutics 232, page 165.
smiles,measurement,value
"Cc1nc2n(c(=O)c1CCN1CCC(c3noc4cc(F)ccc34)CC1)CCCC2 [Risperidone, 3-[2-[4-(6-fluoro-1,2-benzisoxazol-3-yl)-1-piperidinyl]ethyl]-6,7,8,9-tetrahydro-2-methyl-4H-pyrido[1,2-a]pyrimidin-4-one]",solubility in ethylene vinyl acetate copolymer,0.1 wt %
